Row | Compound | melting point
1 | CCOC(=O)CCc1c(O)ccc2ccc(OCC(=O)OCC)cc12 | 112 to 113 °C
2 | O=C(O)[C@H]1Oc2ccc(Cl)cc2[C@@H](c2ccccc2)O1 (relative stereo) | 175 °C
3 | C=Cn1cc(C(=O)OCC)c(=O)c2c(C)c(F)c(F)c(F)c21 | 134 to 136 °C
4 | N#Cc1ccc2[nH]cc(CCN3C(=O)c4ccccc4C3=O)c2c1 | 217 to 221 °C
5 | Cn1nc(C(F)(F)F)cc1Oc1cc(Oc2cc(C(F)(F)F)nn2C)nc(Oc2cc(C(F)(F)F)nn2C)c1 | 130 °C
6 | CCC1(CCCCCl)C(=O)Nc2cc(F)ccc21 (stereo unspecified) | 95 to 97 °C
7 | O=[N+]([O-])c1ccc2c(c1)C(c1ccccc1)=NCc1cc(CO)nn1-2 | 192 to 194 °C
8 | CON=CCCCn1c(C)nc2c(N)nc3ccccc3c21 | 153 to 155 °C
9 | COc1cccc2c1c(=O)oc(=O)n2C | 216 °C
10 | O=C(c1ccc(C(F)(F)F)cc1O)N1CCN(c2ccc(OC[C@H]3CCn4cc([N+](=O)[O-])nc4O3)cc2)CC1 | 217 to 220 °C
11 | O=C1NCC(CN2C(=O)C3(COc4cc5c(cc43)CCO5)c3ccccc32)O1 (stereo unspecified) | 197 to 198 °C
12 | CS(=O)(=O)NS(=O)(=O)c1cccc(NC(=O)NC2N=C(c3ccccc3F)c3ccccc3N(CC(=O)N3CC4CCC(CC4)C3)C2=O)c1 (racemic) | > 250 °C
13 | CCOc1ccc(-c2ccc3c(c2)C=C(C(=O)Nc2ccc(CN(C)C4CCC(=O)CC4)cc2)CCO3)cc1 | 146 to 148 °C
14 | CCCCCN1Cc2cc(C)ccc2CCC1=O | 95 to 97 °C
15 | O=C(O)CCCN1CCN(C2=Nc3ccccc3Cc3ccccc32)CC1 | 207 to 208 °C
16 | CN1C(=O)N(c2c(Cl)cccc2Cl)Cc2cnc(Nc3ccc(CCO)cc3)nc21 | 148 to 151 °C
17 | CC1CC2C3CCC4=CC(=O)CCC4=C3C=CC2(C)C1O (stereo unspecified) | 149 to 151 °C
18 | O=C(O)Cn1cc(C2(O)CCCC2)nn1 | 124 to 126 °C

Row | Compound | melting point
19 | O=C(CCc1ccccc1)N[C@H]1CC[C@H](c2ccc(O)cc2)CC1 | 201 to 206 °C
20 | CONC(=O)CC1=C(C)/C(=C/c2ccc(S(C)=O)cc2)c2ccc(F)cc21 (stereo unspecified) | 177 to 179 °C
21 | CCCNC(=O)c1cc2c(nc(C)n2C)c2c1CCC(c1ccccc1)O2 (stereo unspecified) | 273 °C
22 | O=C1c2ccccc2C(=O)N1CCON=C1c2ccccc2-n2cccc21 | 195 °C
23 | CC(=O)Nc1cc(-c2ccc(S(C)(=O)=O)cc2)c(-c2ccc(F)cc2)s1 | 80 to 92 °C
24 | OCc1ncc2n1CCCC2 | 188 to 199 °C
25 | O=c1ccc2ccc(OCCCCN3CCN(c4cccc5cc(Cl)ccc45)CC3)nc2[nH]1 | 208 to 209 °C
26 | CCOC(=O)c1sc(-c2ccc(Cl)cc2Cl)nc1C | 100 °C
27 | COc1ccc(-c2ccc(Cl)cc2)cc1OC1CCCC1 | 88 to 91 °C
28 | O=C(Cc1ccc2ccccc2n1)NC1CCC2(O)C3Cc4ccc(O)c5c4C2(CCN3CC2CC2)C1O5 (stereo unspecified) | 212 to 214 °C
29 | CCN(CC)CCc1ccc(NC(=O)C#Cc2ccc(C(F)(F)F)cc2Cl)cc1 | 145 to 150 °C
30 | CN(C)c1ccnc(CSc2c[nH]c3ccccc23)c1 | 189 to 191 °C
31 | Cc1ccc(NC(=O)c2ccc3c(c2)C(=O)N(c2c(C)cccc2C)C3=O)cc1C | 223 to 225 °C
32 | O=C1c2ccc(NC(=O)C3CCCC3)cc2C(=O)c2cc(NC(=O)C3CCCC3)ccc21 | 281 °C
33 | Cn1c2c(c3cc(OCc4ccccc4)ccc31)CC(C(N)=O)C2 (stereo unspecified) | 145 to 148 °C
34 | CC(C)(C)c1cc(C(=O)Nc2ccc(Cl)c(C(=O)O)c2)cc(C(C)(C)C)c1O | 265 to 267 °C
35 | COC(=O)c1nc(SC)n(-c2ccccc2)c1C(=O)OC | 121 to 122 °C
36 | Cc1ccc2cc3nc4cccc(Cl)c4c-3[nH]c2c1 | 193 to 194 °C

Further lines, results first:

Row | melting point | Compound
37 | 128 °C | CC#CCOc1ccc(SC(C(=O)NO)C(C)C)cc1 (stereo unspecified)
38 | 158 to 159 °C | COc1ccc(-c2sc3c(c2C)c(=O)c(COC(C)=O)cn3Cc2ccccc2OC)cc1
39 | 83 to 85 °C | CC(=O)C(=Cc1ccc(C#N)cc1)C(=O)C1CC1
40 | 96 to 97 °C | Cc1ccc(S(=O)(=O)OC[C@@H](O)Cc2cc3ccccc3[nH]2)cc1
41 | 131 to 132 °C | COc1ncccc1-c1cnn2ccc(N3CCN(C(=O)OC(C)C)CC3)nc12
42 | 260 °C | CC(C)(C)c1cc(C2(C)NC(=O)NC2=O)cc(C(C)(C)C)c1O (stereo unspecified)
43 | 140 to 142 °C | CC(=O)N1CCc2cc(C(=O)C(C)Br)ccc21 (stereo unspecified)
44 | 175 to 178 °C | CC(C)On1c(C2CCCCC2)nc2c(N)nc3ccccc3c21
45 | > 300 °C | CCN1CCCC(N2C(=O)c3ccc([N+](=O)[O-])cc3C2=O)C1 (stereo unspecified)
46 | 177 to 179 °C | COc1cc2c(cc1OC)C(=O)C(C#N)C2 (stereo unspecified)
47 | 141 to 143 °C | O=C(c1cccnc1)N1CC2CCc3ccccc3C2=N1 (stereo unspecified)
48 | 225 to 227 °C | CC(C)(CCO)c1ccc(C(=O)Nc2cn3cc(-n4ccnc4)ccc3n2)cc1
49 | 147 to 149 °C | CCc1cn(C2OC(CNC(=O)C(C)Oc3c(Cl)cc(Cl)c(OC)c3Cl)C(OC(=O)C(NC(=O)OC(C)(C)C)C(C)C)C2F)c(=O)[nH]c1=O (stereo unspecified)
50 | 199 to 200 °C | COC(=O)c1cc(F)c(N2CCC(NC(C)=O)C2)nc1Nc1ccc(F)cc1F (stereo unspecified)
51 | 175 to 180 °C | Nc1nc(=O)n(C(=O)Oc2ccccc2)cc1F
52 | 115 to 118 °C | COc1cc(C(O)c2cnc(Cl)nc2Cl)cc(OC)c1OC (stereo unspecified)
53 | 95 to 98 °C | C#CCOc1cc(-c2ncc(C(F)(F)F)c(C)c2Cl)c(F)cc1Cl
54 | 177 to 180 °C | CCS(=O)(=O)Nc1ccc(S(=O)(=O)C=CC#N)cc1

Row | melting point | Compound
55 | 44.5 to 45.5 °C | CCCCCCOc1ccc(-c2cc(C=O)ccc2C=O)cc1
56 | 189 to 192 °C | CCOc1cccc(COc2ccc3c(c2)C=C(C(=O)Nc2ccc(CN(C)C4CCOCC4)cc2)CCS3(=O)=O)c1
57 | > 330 °C | Nc1nc(-c2ccncc2)nc2[nH]c(S)nc12
58 | 51 to 53 °C | c1ccc(-c2csc(-c3cccs3)n2)cc1
59 | 155 to 159 °C | c1csc(-c2ccc3nncn3n2)c1
60 | 265 to 267 °C | N#Cc1ccc2c(c1)c1cc(C#N)ccc1n2Cc1ccccc1
61 | 119 °C | CSc1ccc(O)nn1
62 | 156 to 158 °C | CCC1C=CCCC1C(O)C(N)=O (stereo unspecified)
63 | 129 to 130 °C | CC(=O)Oc1cc(OCc2ccccc2)cc(OC(C)=O)c1
64 | 129 °C | O=C(c1cccs1)c1cnn2c(-c3cccc(-c4cc[nH]n4)c3)ccnc12
65 | 174 to 178 °C | O=C(Nc1ccc(N2CCCCC2)cc1)N(C[C@@H]1CCC[C@H](CN(C(=O)Nc2ccc(N3CCCCC3)cc2)C2CCCCC2)C1)C1CCCCC1
66 | 32 to 38 °C | O=C(CCCCCl)c1cccc2c1OCCO2
67 | 92 to 96 °C | CC(C)(C)OC(=O)NCCc1ccc(Oc2cc(C#N)ccn2)cc1
68 | 175 to 176 °C | CCN1C(=O)C(C(=O)Nc2ccc(Cl)cc2)c2cc3c(cc21)CCO3 (stereo unspecified)
69 | 197 °C | O=C(N[C@H]1CC[C@H](CCN2CCC(c3cccc4c3CCO4)CC2)CC1)C1CCC1
70 | 232 to 234 °C | Cc1cc(Nc2cncc(-c3ccccc3)n2)n[nH]1
71 | 91 to 93 °C | CCCc1nc(Cl)c(-c2ccc(C)cc2)c(Cl)n1

— a melting point compilation (Tetko et al.; mined from patent text by program, amines drawn as free bases though some values may be those of a salt)
